Laboratory results taken from publication PMC4533973, “Synthesis and Evaluation of Chloramphenicol Homodimers: Molecular Target, Antimicrobial Activity, and Toxicity against Human Cells” (PLoS ONE, 2015).

Tested on: post-translocation ribosomal complex (complex C) derived from E. coli
Test: Inhibition of peptide-bond formation (puromycin reaction, AcPhe-puromycin synthesis)
Type: biochemical
Settings: S1 Table
Procedure: The inhibitory effect of CAM dimers on peptide-bond formation was studied using the puromycin reaction, a model reaction between puromycin and a post-translocation ribosomal complex (complex C) derived from E. coli. Since puromycin, a pseudo-substrate of PTase which binds to the A-site of the catalytic center, was present in excess, the reaction obeyed first-order kinetics. The first-order rate constant, k obs, at each concentration of puromycin was determined by fitting the x values into Eq 1, ln100/100−x=kobst (1) where x is the product AcPhe-puromycin, expressed as the percentage of complex C added in the reaction mixture, and t is the time of the reaction.
A representative time plot obtained at 400 μM puromycin, in the absence of inhibitor, is illustrated in Fig 3A (upper line) and, as expected, is characterized by linearity. However, when the reaction proceeded in the presence of a CAM dimer, e.g. compound 5, the time plots were characterized by two unique features that distinguish them from a typical kinetic behavior. […] Second, the slopes of both progress curves varied as a function of the inhibitor concentration (Fig 3A, four lower curves). […] These kinetic results are consistent with compound 5 operating through an induced fit mechanism (Fig 3C), in which the inhibitor first binds rapidly to complex C to form the encounter complex CI, which then undergoes a slow conformational change to produce a final, tighter complex C*I. Corroborative evidence for the consistency of this model is provided by the hyperbolic shape of the equilibration plots (k eq versus [I]), in which k eq represents the apparent rate constant for the attainment of equilibrium among C, CI, and C*I (Fig 3B). If one-step mechanism of inhibition was applicable (C + I ⇄ C*I), k eq should be a linear function of [I] [27]. […] Because the isomerization constant k on/k off was calculated to be 3.6, the inhibition process was finally associated with high overall inhibition of peptide-bond formation (Ki* = 0.3 μM; S1 Fig, panel C). In addition, the slow k off rate (0.64 min^-1) provided prolonged residence time for compound 5 at the ribosome, a behavior potentially predicting good efficacy in vivo [28].
The puromycin reaction, i.e. the reaction between complex C and excess puromycin (S), was carried out at 25°C in buffer A [100 mM Tris-HCl pH 7.2, 6 mM (CH3COO)2Mg, 100 mM NH4Cl and 6 mM 2-mercaptoethanol]. Under these conditions, the puromycin reaction obeys C + S ⇄KS CS→kcat C^′ + S pseudo-first-order kinetics and was analyzed as previously described.
In the presence of CAM dimers, biphasic semi-logarithmic time plots were obtained. The slope of the straight line through the origin was seen as the value of the apparent rate constant, k obs(early), at the early phase of the reaction. Similarly, the slope of the second straight line was taken as the apparent rate constant, k obs(late), at the late phase of the puromycin reaction.

Compound | k6 | k6/k7 | k7
O=C(O)CCCC(=O)N[C@H](CO)[C@H](O)c1ccc([N+](=O)[O-])cc1 [Compound 9, 5-(((1R,2R)-1,3-dihydroxy-1-(4-nitrophenyl)propan-2-yl)amino)-5-oxopentanoic acid] | 2.50 ± 0.33 min⁻¹ | 1.53 ± 0.18 | 1.63 ± 0.12 min⁻¹
O=C(O)CCCCC(=O)N[C@H](CO)[C@H](O)c1ccc([N+](=O)[O-])cc1 [Compound 10, 6-(((1R,2R)-1,3-dihydroxy-1-(4-nitrophenyl)propan-2-yl)amino)-6-oxohexanoic acid] | 2.52 ± 0.40 min⁻¹ | 2.25 ± 0.27 | 1.11 ± 0.12 min⁻¹
O=C(O)c1ccc(C(=O)N[C@H](CO)[C@H](O)c2ccc([N+](=O)[O-])cc2)cc1 [Compound 11, 4-(((1R,2R)-1,3-dihydroxy-1-(4-nitrophenyl)propan-2-yl)carbamoyl)benzoic acid] | 2.31 ± 0.48 min⁻¹ | 1.63 ± 0.31 | 1.42 ± 0.13 min⁻¹
